We go through 32 molecules from the ASAP Discovery antiviral challenge data (2025).

SMILES strings stand for the structures. In brackets after ≈: the same amount, converted by molar mass. Several values for one entry are separate records, joined by “and”; a condition that tells them apart may be missing. Identical values can stand only once.

For orientation: microsomal CLint means a measure of how fast metabolising enzymes remove a compound, apart from limits set by blood flow. Read a low microsomal CLint as greater metabolic stability. The term kinetic solubility denotes solubility judged after dilution from a stock solution rather than from solid.

The conditions of one series: mouse; liver_microsomes.
In turn, `CNC(=O)c1cc2c(N[C@H](c3ccc4c(c3)NC(=O)CO4)C(C)C)ncnc2[nH]1` (racemic) showed a microsomal CLint of 20 µL/min/mg.
For `O=C(Nc1ccc2c(c1)CNC2)c1cccc2[nH]c(C(F)(F)F)cc12`, the intrinsic clearance (microsomal CLint) was found to be 12.7 µL/min/mg.
On the same count and under the same terms, the result for `Cn1ncc(-c2cc3c(N[C@H](c4ccc5c(n4)OCCO5)C(C)(C)C)ncnc3[nH]2)c1C#N` (single isomer, unassigned) reads 226 µL/min/mg; that for `CC(C)(C)[C@H](Nc1ncnc2[nH]c(-c3cnn(CC(N)=O)c3)cc12)c1ccc2c(c1)OCCO2` (racemic), 47 µL/min/mg; that for `CN(c1ccc2c(c1)CNC2)[C@H](C(=O)NCC(F)F)c1cc(Cl)cc(C2CC2)c1` (racemic), 10.6 µL/min/mg.
On the same count and under the same terms, the result for `CC(C)[C@H](Nc1ncnc2[nH]c(-c3cnn(C)c3C#N)cc12)c1ccc2c(c1)S(=O)(=O)CCC2` (racemic) reads 440 µL/min/mg; that for `Cn1ncc(-c2cc3c(N[C@H](c4ccc5c(c4)OCCO5)C(C)(C)C)ncnc3[nH]2)c1C#N` (racemic), 199 µL/min/mg.
`CC(C)[C@H](Nc1ncnc2[nH]c(-c3ccc4cncn4c3)cc12)c1ccc2c(c1)S(=O)(=O)CCC2` (racemic) had an intrinsic metabolic clearance (microsomal CLint) of 170 µL/min/mg.
Still for that read-out and setting: the same measure for `CC(C)[C@H](Nc1ncnc2[nH]c(-c3cnn(CC(N)=O)c3)cc12)c1ccc2c(c1)OCCO2` (racemic): 41 µL/min/mg; for `COCCNC(=O)c1c[nH]c2ncnc(N[C@H](c3ccc4c(c3)S(=O)(=O)CCC4)C(C)C)c12` (racemic): 888 µL/min/mg.
Same read-out and setting: the result for `CCNC(=O)c1cc2c(N[C@H](c3ccc4c(c3)OCCO4)C(C)C)ncnc2[nH]1` (racemic) reads 88 µL/min/mg.
`CC(C)[C@H](Nc1ncnc2[nH]c(-c3cnn(C)c3)cc12)c1ccc2c(c1)S(=O)(=O)CCC2` (racemic) gave a microsomal CLint of 155 µL/min/mg.
Still for that read-out and setting: the result for `CC(C)[C@H](Nc1ncnc2[nH]c(-c3cnn(CC(N)=O)c3)cc12)c1ccc2c(n1)OCCO2` (single isomer, unassigned) reads 5 µL/min/mg and 9 µL/min/mg; that for `N#Cc1cc2c(cc1NC(=O)c1cc(F)cc3[nH]ncc13)CNC2`, 288 µL/min/mg; that for `CNCc1cc(-c2cc3c(N[C@H](c4ccc5c(c4)S(=O)(=O)NCC5)C(C)C)ncnc3[nH]2)co1` (racemic), 42 µL/min/mg.
The same measure, in the same setting: the result for `CC(C)[C@H](Nc1ncnc2[nH]c(-c3cnn(CC(N)=O)c3)cc12)c1ccc2c(c1)S(=O)(=O)CCC2` (single isomer, unassigned) reads 39 µL/min/mg and 96 µL/min/mg.

Conditions in the next series: not given
`CNC(=O)c1cc(Cl)ccc1NS(=O)(=O)c1ccc(Oc2ccccc2Cl)cc1` had a kinetic solubility of 25 µM (≈ 11.3 µg/mL).
Same read-out and setting: the same measure for `CC(C)[C@H](Nc1ncnc2[nH]c(-c3cnn(C)c3C#N)cc12)c1ccc2c(c1)S(=O)(=O)CCC2` (single isomer, unassigned): 22 µM and 26 µM.
For `CC(C)[C@H](Nc1ncnc2[nH]c(-c3cnn(CC(N)=O)c3)cc12)c1ccc2c(c1)S(=O)(=O)CCC2` (racemic), the kinetic solubility is 341 µM (≈ 168 µg/mL).
Turning to `CC(C)[C@H](Nc1ncnc2[nH]cc(C(=O)NC3CC3)c12)c1ccc2c(c1)S(=O)(=O)CCC2` (racemic), the kinetic solubility came out at 257 µM (≈ 117 µg/mL).
Same read-out and setting: the same measure for `CNC(=O)c1c[nH]c2ncnc(N[C@H](c3ccc4c(c3)OCCO4)C(C)C)c12` (racemic): 319 µM (≈ 122 µg/mL); for `CC(C)(C)[C@H](Nc1ncnc2[nH]c(-c3cnn(CC(N)=O)c3)cc12)c1ccc2c(n1)OCCO2` (racemic): 48 µM (≈ 22.2 µg/mL).
On the same count and under the same terms, the same measure for `CC(C)[C@H](Nc1ncnc2[nH]c(-c3ccc4nnn(C)c4c3)cc12)c1ccc2c(c1)S(=O)(=O)CCC2` (racemic): 6 µM (≈ 3.01 µg/mL); for `CC(C)[C@H](Nc1ncnc2[nH]c(-c3cncc(S(C)(=O)=O)c3)cc12)c1ccc2c(c1)S(=O)(=O)CCC2` (racemic): 31 µM (≈ 16.3 µg/mL).
Same read-out and setting: the result for `CC(C)(C)[C@H](Nc1ncnc2[nH]c(-c3cnn(CC(N)=O)c3)cc12)c1ccc2c(c1)OCCO2` (single isomer, unassigned) reads 89 µM and 104 µM; that for `O=C(/C=C/c1ccccc1)C(=O)N1CCN(CCc2ccccc2)CC1`, 239 µM (≈ 83.3 µg/mL).
On to `COCCNC(=O)[C@H](Nc1ccc2c(c1)CNC2)c1cc(Cl)cc(C2CC2)c1` (single isomer, unassigned), for which the solubility (kinetic) was determined as 320 µM (≈ 128 µg/mL).
Same read-out and setting: the result for `CNC(=O)c1cc2c(N[C@H](c3ccc4c(c3)S(=O)(=O)CCC4)C(C)C)ncnc2[nH]1` (racemic) reads 369 µM (≈ 158 µg/mL); that for `CC(C)[C@H](Nc1ncnc2[nH]c(-c3cnn(C)c3)cc12)c1ccc2c(c1)S(=O)(=O)CCC2` (single isomer, unassigned), 111 µM (≈ 50 µg/mL); that for `O=C(Nc1ccc2c(c1)CNC2)c1cc(F)cc(-c2cn[nH]c2)c1`, 184 µM (≈ 59.3 µg/mL).
In the case of `NCc1cccc(NC(=O)[C@@H](NC(=O)OCc2ccccc2)c2ccc(OCc3ccccc3)cc2)c1`, the kinetic solubility was determined as 23 µM (≈ 11.4 µg/mL). Compared with the last molecule, the solubility kinetic is about 8-fold lower.
On to `CNC(=O)c1c[nH]c2ncnc(N[C@H](c3ccc4c(c3)S(=O)(=O)CCC4)C(C)C)c12` (racemic), for which the solubility (kinetic) was found to be 390 µM (≈ 167 µg/mL).
The same measure, in the same setting: the result for `CNC(=O)c1cc2c(N[C@H](c3ccc4c(c3)NC(=O)CO4)C(C)C)ncnc2[nH]1` (racemic) reads 372 µM (≈ 147 µg/mL).
Still for that read-out and setting: the result for `O=C(Nc1ccc2c(c1)CNC2)c1cccc2[nH]c(C(F)(F)F)cc12` reads 372 µM (≈ 128 µg/mL).
Still for that read-out and setting: the same measure for `Cn1ncc(-c2cc3c(N[C@H](c4ccc5c(n4)OCCO5)C(C)(C)C)ncnc3[nH]2)c1C#N` (single isomer, unassigned): 24 µM (≈ 10.7 µg/mL); for `CC(C)(C)[C@H](Nc1ncnc2[nH]c(-c3cnn(CC(N)=O)c3)cc12)c1ccc2c(c1)OCCO2` (racemic): 195 µM (≈ 90 µg/mL); for `CN(c1ccc2c(c1)CNC2)[C@H](C(=O)NCC(F)F)c1cc(Cl)cc(C2CC2)c1` (racemic): 172 µM (≈ 72.2 µg/mL).
`CC(C)[C@H](Nc1ncnc2[nH]c(-c3cnn(C)c3C#N)cc12)c1ccc2c(c1)S(=O)(=O)CCC2` (racemic) came in with a solubility (kinetic) of 34 µM (≈ 16.2 µg/mL). This solubility kinetic is about 5.1-fold lower than that of the molecule before.
On the same count and under the same terms, the result for `Cn1ncc(-c2cc3c(N[C@H](c4ccc5c(c4)OCCO5)C(C)(C)C)ncnc3[nH]2)c1C#N` (racemic) reads 25 µM (≈ 11.1 µg/mL).
On the same count and under the same terms, the result for `CC(C)[C@H](Nc1ncnc2[nH]c(-c3ccc4cncn4c3)cc12)c1ccc2c(c1)S(=O)(=O)CCC2` (racemic) reads 14 µM (≈ 6.81 µg/mL).
